Values quoted from earlier work, collected in patent US20200179352A1, “USE OF VALBENAZINE FOR TREATING LEVODOPA-INDUCED DYSKINESIA” (Neurocrine Biosciences, Inc., priority 2017, published 2020).

Conditions: series of 448 patients with various hyperkinetic movement disorders treated with tetrabenazine from 1997-2004

COc1cc2c(cc1OC)C1CC(=O)C(CC(C)C)CN1CC2 (stereo not shown) [tetrabenazine, 3-isobutyl-9,10-dimethoxy-1,3,4,6,7,11b-hexahydro-2H-pyrido[2,1-a]isoquinolin-2-one]
adverse event rate for parkinsonism: 15.4%
